Calls of active or inactive are those of the source.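 The calls were made as follows: active = EGR1 protein level shifted at least 30% up or down versus solvent-only cells; inactive = shift under 30% either way.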
Target: Early growth response protein 1 (Homo sapiens) (UniProt P18146)
Assay: altered EGR1 protein amount, HT29 – cell-based, HT29 colorectal carcinoma, chemiluminescent western blot, counter-screen for KLF5 inhibitor project, late-stage follow-up (AID 588657)
Details: HT29 cells, 24 h, at 10 µM, hits give high values

Early growth response protein 1 (Homo sapiens), sequence (P18146 whole entry, looked up): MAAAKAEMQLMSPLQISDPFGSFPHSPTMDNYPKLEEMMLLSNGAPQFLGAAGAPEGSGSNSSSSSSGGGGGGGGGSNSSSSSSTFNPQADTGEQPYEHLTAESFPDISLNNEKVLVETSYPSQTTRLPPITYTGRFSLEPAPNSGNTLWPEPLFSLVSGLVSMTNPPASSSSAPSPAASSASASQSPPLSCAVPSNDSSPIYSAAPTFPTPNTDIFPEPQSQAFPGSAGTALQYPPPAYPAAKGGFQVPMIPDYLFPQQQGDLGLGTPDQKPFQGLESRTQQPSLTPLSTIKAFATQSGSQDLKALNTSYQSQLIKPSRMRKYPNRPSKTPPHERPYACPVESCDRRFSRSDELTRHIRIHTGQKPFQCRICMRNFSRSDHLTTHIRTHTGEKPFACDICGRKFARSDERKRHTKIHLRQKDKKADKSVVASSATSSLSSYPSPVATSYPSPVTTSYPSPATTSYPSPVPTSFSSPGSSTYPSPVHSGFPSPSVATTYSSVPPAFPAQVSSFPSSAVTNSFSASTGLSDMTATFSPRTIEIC

| SMILES | inhibition |
| --- | --- |
| CN(C(=O)CNC(=O)/C=C/c1cccc(Cl)c1)C1CCS(=O)(=O)CC1 | 64.5% |
| CN(C(=O)CNC(=O)/C=C/c1cccc(Cl)c1)C1CCS(=O)(=O)C1 (stereo not drawn) | 9.34% (inactive) |
| CN(C(=O)COC(=O)/C=C/c1cccc([N+](=O)[O-])c1)C1CCS(=O)(=O)C1 (stereo not drawn) | 29.7% |

Source: PubChem BioAssay AID588657 (The Scripps Research Institute Molecular Screening Center, 2011)
